Like-named read-outs stand apart in the source and are kept apart here.
Legend:
[1] = molecular target: T1, Helicobacter pylori glutamine synthetase (HpGS), SEQ ID NO: 2 (Helicobacter pylori, UniProt P94845); experiment: GS-BpsA coupled assay kinetics of HpGS for glutamate and ammonium (A590, indigoidine); type: biochemical; conditions: 37° C., coupled with BpsA
T1 construct: BpsA-coupled assay
T1 sequence (P94845 1-481): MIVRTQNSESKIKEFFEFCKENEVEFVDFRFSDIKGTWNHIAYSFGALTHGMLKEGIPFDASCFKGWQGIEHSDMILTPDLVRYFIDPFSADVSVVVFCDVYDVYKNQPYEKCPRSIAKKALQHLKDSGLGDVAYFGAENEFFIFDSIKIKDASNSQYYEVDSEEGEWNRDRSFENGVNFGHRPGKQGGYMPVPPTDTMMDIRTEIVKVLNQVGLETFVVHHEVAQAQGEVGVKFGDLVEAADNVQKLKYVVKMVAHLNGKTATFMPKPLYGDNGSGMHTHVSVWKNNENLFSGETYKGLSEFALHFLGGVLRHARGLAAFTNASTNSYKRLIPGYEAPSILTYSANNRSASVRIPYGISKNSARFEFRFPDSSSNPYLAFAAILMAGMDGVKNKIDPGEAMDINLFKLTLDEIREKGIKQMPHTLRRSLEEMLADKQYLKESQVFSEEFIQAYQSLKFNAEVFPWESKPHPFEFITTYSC
Description: (§1) FIG. 6A: Sigmoidal kinetics data obtained when the GS from Helicobacter pylori (HpGS) is assayed in the presence of various concentrations of its substrate, glutamate. The concentration of GS and BpsA is 3 μM and 6 μM respectively. An optimised condition for the GS-BpsA assay was used. A range of glutamate concentrations (0-900 μM) was used in the assay. Rates were measured through the increase in absorbance at 590 nm at 37° C. Data are the mean values of three replicates and error bars indicate the standard error of the mean.
as §1, with “6B:” for “6A:”, “HpGS” for “the GS from Helicobacter pylori (HpGS)”, “ammonium.” for “glutamate.”, “0-900 μM NH4Cl” for “glutamate concentrations (0-900 μM)”
(§2) FIG. 21A: Amino acid sequence for Helicobacter pylori glutamine synthetase enzyme. SEQ ID NO: 2. The His-tag sequence used for the protein fusion is also shown.
(§3) Optimised ATP/pH and Mg^2+ conditions were utilised with varying concentrations of KCl (FIG. 5). A concentration of 10 mM KCl was chosen to be optimal based on this experiment. The final optimised reaction mixture for the GS-BpsA assay was determined to be 100 mM Tris Base pH 11.4, 15 mM ATP, 20 mM MgCl2, and 10 mM KCl.
(§4) Using optimised assay conditions for the GS-BpsA coupled assay, kinetics data for HpGS were collected for its substrates glutamate and ammonium. For these experiments, the concentrations of GS and BpsA were 3 μM and 6 μM respectively. Optimised conditions for the GS-BpsA assay were used. A range of 0-1000 μM glutamate concentration and 1000 μM NH4Cl was used in the assay. Rates were measured through the increase in absorbance for 5 minutes at 590 nm and 37° C.
(§5) GS enzymes have been previously found to display non-Michaelis-Menten, sigmoidal kinetics (Murray et al., 2013). As expected, the data were fit better by the Hill equation for cooperative enzymes than by the Michaelis-Menten equation (FIGS. 6A-6B). The Hill coefficient indicates the estimate of the number of active sites that are acting cooperatively, which has a value of approximately 2 for both substrates.

[2] = GS activity assay coupled with PK/LDH (NADH oxidation, A340); type: biochemical; conditions: 37° C., decrease of absorbance at 340 nm
Description: (§6) FIG. 3: GS activity assay. The assay was adapted from Shapiro et. al. The reaction mixture included 30 mM imidazole, 100 mM Na-glutamate, 8.5 mM adenosine 5′-triphosphate (ATP), 1 mM phosphoenolpyruvate (PEP), 60 mM magnesium chloride (MgCl2), 20 mM potassium chloride (KCl), 45 mM ammonium chloride (NH4Cl), 0.25 mM (3-nicotinamide adenine dinucleotide (NADH), 28 units pyruvate kinase/40 units L-lactic dehydrogenase (PK/LDH). The reactions were performed at 37° C. and rates were measured by the decrease of absorbance at 340 nm.
For preliminary experiments, glutamine synthetase from Escherichia coli (E. coli) was successfully expressed, purified and tested for activity. This assay took advantage of the biosynthetic reaction of GS (which produces ADP) coupled with lactate dehydrogenase and pyruvate kinase to oxidise NADH (Shapiro & Stadtman, 1970).
as §6, with “The” for “FIG. 3: GS activity assay. The assay was adapted from Shapiro et. al. The”, “0-nicotinamide” for “(3-nicotinamide”
The soluble GS enzymes were tested. […]

[3] = Activity assay of purified arginine deiminase; type: biochemical
Description: We attempted to express and purify the three ADI enzymes in E. coli. After numerous attempts, we were unable to express the M. hominis or P. putida enzymes in a soluble form. Each protein was expressed solely in inclusion bodies, under all conditions tested (FIG. 14A). Purification from inclusion bodies and refolding were also attempted, without success. In contrast, we were able to express and purify the P. aeruginosa ADI enzyme (average yield=40 mg per litre of bacterial culture).

[4] = substrate: N=C(N)NCCC[C@H](N)C(=O)O; experiment: Michaelis-Menten kinetics of RcArgZ with arginine (glutamate dehydrogenase coupled assay, A340); type: biochemical, Rhodospirillum centenum; conditions: other: 37° C., 0-3000 μM arginine, decrease in absorbance at 340 nm
Description: FIG. 17: Michaelis-Menten kinetics of RcArgZ with arginine. A range of 0-3000 μM arginine concentration was used in the assay. Rates were measured through the decrease in absorbance at 340 nm at 37° C. Data are the mean values of three replicates and error bars indicate the standard error of the mean.
FIG. 22A: Amino acid sequence for Rhodospirillum centenum arginine dihydrolase enzyme. SEQ ID NO: 3. This sequence is derived from the sequence listed as accession number B6IRA8 in the UniProt database, but with the deletion of amino acid residues 2 to 18 from the UniProt sequence. These residues were deleted because they were predicted to encode a disordered region in the polypeptide. The His-tag sequence used for the protein fusion is also shown.
For this reason, we ordered the gene for this isolated domain from a commercial gene synthesis company (Twist Bioscience). […]
RcArgZ activity was quantified in vitro by coupling it with glutamate dehydrogenase (GDH) in a spectrophotometric assay. […]
Therefore, a decrease in absorbance at 340 nm is directly relative to glutamate production, and because GDH is in excess in the reaction, it is directly relative to RcArgZ activity to produce ammonium from arginine.
Activity data for RcArgZ were collected across a range of arginine concentrations. […] Rates were measured through the decrease in absorbance at 340 nm at 37° C.

[5] = substrate: N[C@@H](CCC(=O)O)C(=O)O; experiment: GS-BpsA coupled assay kinetics of HpGS for glutamate and ammonium (A590, indigoidine); type: biochemical, Helicobacter pylori; conditions: coupled with BpsA, pH 11.4; for K0.5: Hill equation
Description: as §1
as §1, with “6B:” for “6A:”, “HpGS” for “the GS from Helicobacter pylori (HpGS)”, “ammonium.” for “glutamate.”, “0-900 μM NH4Cl” for “glutamate concentrations (0-900 μM)”
as §2, §3, §4, §5

[6] = other: Biological Replicate 1, 37° C.
[7] = other: Biological Replicate 2, 37° C.

With `N` [Ammonium, ammonium] the “kcat (estimated from Vmax)” value [1] was 0.8 ± 0.03 s⁻¹, the Hill coefficient ([1]; Hill equation) was 2.0 and the Km ([1]; read-out: Khalf (concentration of the substrate at the half-maximal velocity)) was roughly 100 µM. The “kcat (ammonium varied)” value ([1]; Biological Replicate 1) was 0.78 s⁻¹, the Km ([1]; Biological Replicate 1, Hill equation, read-out: Khalf (ammonium)) was 96 µM and the “kcat (ammonium varied)” value ([1]; Biological Replicate 2) was 0.78 s⁻¹. For the same molecule, the Km ([1]; Biological Replicate 2, Hill equation, read-out: Khalf (ammonium)) was 97 µM.

With “EcGS: glutamine synthetase from Escherichia coli, SEQ ID NO: 14” the “GS activity (ATP hydrolysis) in PK/LDH assay” value [2] was “only slightly active”.

In the case of “P. aeruginosa ADI: Pseudomonas aeruginosa arginine deiminase enzyme expressed and purified from E. coli”, the “activity of purified arginine deiminase” value [3] is reported as “did not have any activity”.

B1: Rhodospirillum centenum arginine dihydrolase (RcArgZ), truncated: deletion of residues 2 to 18 of UniProt B6IRA8, SEQ ID NO: 3 (Rhodospirillum centenum SW) (protein)
chain: APPRIIMCAPDHFEVSYTINPWMRPDEWEARRSELSGAAAAGWSALRRRLQQLGAAVELVAPRSGLPDLVFTANAAVVLDGKALVARFRHPERRPEEPHFRRFFDGLAARGLLDEVHDMPPGVCLEGAGDCVHDAGRGVFFLGHGFRSDREAAAVVADLFGEEVEPLELVDPRFYHMDTALCPLSGGEVLYVPGAFSAEGRGRLRERIGADRLIEVPEADAVRLAANAVNLGRDVVLAEASDDLKAALAERGYSVHEVPIRSFGLSGGSAFCLTLRLDRRSNRRSGRPVGGTGPGAAADAPGQPALLD
notes: synthetic gene (Twist Bioscience); GDH-coupled assay
In the case of B1, the Km [4] is reported as 360 ± 30 µM and the kcat [4] is reported as 10.4 s⁻¹.

B2: Helicobacter pylori glutamine synthetase (HpGS), SEQ ID NO: 2 (Helicobacter pylori 26695) (protein)
chain: T1 sequence (P94845 1-481)
notes: BpsA-coupled assay
In the case of B2, the K0.5 [5, 6] is reported as 350 µM, the kcat [5, 6] is reported as 0.28 s⁻¹ and the K0.5 [5, 7] is reported as 350 µM. For the same molecule, the kcat [5, 7] was 0.45 s⁻¹.
